Data on 88 compounds can be found in a melting point compilation (Tetko et al.).

A word on the melting point: it is the temperature of the solid-liquid transition. In turn, `CC(=O)N(C)c1cccc(N)c1` displayed a melting point of 114 to 116 °C.
As for `O=C(O)CNc1nccs1`, the figure is 261 to 263 °C.
Under `O=c1[nH]nnn1-c1ccccc1` stands 188 to 189 °C; under `CC(=O)c1ccc(OC(C)C)cc1`, 42 to 44 °C; under `COc1ccccc1NCCC(=O)O`, 84 to 86 °C.
Under `Cc1cc(NN)nc(-c2ccccn2)n1` stands 175 to 177 °C; under `CCc1c(O)nc(S)n(-c2ccccc2OC)c1=O`, 160 to 162 °C; under `COC(=O)c1ccc(CNC(=O)C(C)Cl)cc1` (stereo not drawn), 96 to 98 °C.
In turn, `CC(=O)Cn1cnc(C)c1C` displayed a melting point of 80 to 82 °C.
Under `CN(CCCN1C(=O)C=CC1=O)c1ccccc1` stands 84 to 86 °C; under `Cc1cc(Br)cc2c1NC(=O)C2=O`, 298 to 300 °C.
Under `CC(C)(C)Sc1ccc(C(N)=S)nc1` stands 129 to 131 °C; under `O=C(O)CN1C(=O)COc2ccc(S(=O)(=O)Cl)cc21`, 159 to 161 °C.
As for `COc1cc(C=O)cc(Cl)c1OCC(N)=O`, the figure is 166 to 170 °C; as for `CCN(CC)S(=O)(=O)c1ccc(N2CCN(C)CC2)c(N)c1`, 148 to 152 °C.
Compound `NS(=O)(=O)NCc1ccccn1` came in with a melting point of 138 to 140 °C.
Under `O=Cc1c[nH]nc1-c1ccc2c(c1)OCCO2` stands 210 to 212 °C; under `O=C(NCc1ccccc1)c1ccc(-n2ccnc2S)cc1`, 216 to 218 °C; under `Cc1cc(N)nn1-c1ccccc1Cl`, 63 to 65 °C.
Under `CCc1ncsc1C(=O)O` stands 193 to 195 °C; under `Nc1cccc(-c2nc3ccccc3s2)c1`, 138 to 140 °C.
The compound `c1nnc(C2CCCNC2)[nH]1` (stereo not drawn) had a melting point of 149 to 151 °C.
As for `O=S(=O)(c1c[nH]c2ncccc12)N1CCNCC1`, the figure is 207 to 209 °C.
As for `S=C=Nc1ccc2ccccc2c1`, the melting point is 59 to 61 °C.
As for `O=C1CCCN1CO`, the figure is 79 to 81 °C; as for `O=C1CC2CCC(C1)N2c1ccccc1`, 89 to 91 °C.
Under `Cc1nn(Cc2cccc(Br)c2)cc1C(=O)O` stands 164 to 166 °C.
Under `CC(C)(C)OC(=O)NC1CC1(F)F` (stereo not drawn) stands 73 to 75 °C; under `c1ccc(CC2CCN(Cc3ccccc3)CC2)cc1`, 65 to 67 °C.
The compound `O=C(O)c1cccc(OCc2cccc(Cl)c2)c1` gave a melting point of 144 to 146 °C.
Under `CC(C)(C)OC(=O)c1cccc(C(=O)O)c1` stands 147 to 149 °C; under `Cc1ccc(C(=O)CCl)cc1C`, 51 to 53 °C; under `O=C(O)C1CC(=O)N(c2ccc3c(c2)OCO3)C1` (stereo not drawn), 172 to 174 °C.
As for `Cc1[nH]ncc1S(=O)(=O)Cl`, the figure is 95 to 97 °C; as for `O=C(O)c1ccc(NC(=O)C2CC2)cc1`, 274 to 276 °C.
As for `Cn1nc(C(C)(C)C)cc1NC(=O)CCl`, the figure is 138 to 140 °C.
As for `COc1cc2c(cc1OC)CN(Cc1ccccc1N)CC2`, the melting point lay within 149 to 151 °C.
As for `Cc1cn2c(CC(=O)O)csc2n1`, the figure is 211 to 213 °C.
Consider `CC(C)(C)c1nc(C(=O)O)cs1`, for which the melting point was 126 to 128 °C.
As for `O=C(CCl)Nc1c(Cl)cccc1Cl`, the figure is 178 to 180 °C; as for `Cn1cc(CNc2ccccc2C(F)(F)F)cn1`, 53 to 55 °C; as for `Cc1ccc(CN2C(=O)CCC2C(=O)O)cc1` (stereo not drawn), 128 to 130 °C.
Under `CC(c1ccc(F)cc1F)S(N)(=O)=O` (stereo not drawn) stands 93 to 95 °C; under `Cc1cccc2[nH]c(CO)cc12`, 71 to 73 °C.
As for `O=C1CCC(c2ccccc2)N1` (stereo not drawn), the figure is 97 to 99 °C; as for `CN(C)C(=O)Cn1ccc2cc(N)ccc21`, 124 to 126 °C; as for `O=C(CCl)Nc1cc(-n2cnnn2)ccc1F`, 185 to 187 °C.
The compound `CNS(=O)(=O)c1ccc(Br)s1` came in with a melting point of 59 to 61 °C.
`Cc1noc(C2(C)CCN(C(=O)OC(C)(C)C)CC2)n1` returned a melting point of 80 to 82 °C.
`Cc1cnn(Cc2ccc(N)cc2)c1` had a melting point of 78 to 80 °C.
Under `CNc1ncccc1N` stands 108 to 110 °C.
As for `O=C1NC(=O)N(Cc2cccs2)C1=O`, the figure is 170 to 172 °C; as for `Fc1ccccc1-c1nc(CCl)cs1`, 64 to 66 °C.
Under `O=C(O)CCC(=O)c1csc2ccccc12` stands 139 to 141 °C; under `N#Cc1cc2c([nH]c1=O)CCCCC2`, 253 to 255 °C.
Compound `CC(=O)CC(=O)c1cnn(C)c1` showed a melting point of 88 to 90 °C.
As for `O=C(O)C1CSCN1C(=O)C1CCCC1` (stereo not drawn), the figure is 114 to 116 °C.
As for `CC(Cl)C(=O)Nc1ccc(Cl)cc1C(F)(F)F` (stereo not drawn), the figure is 107 to 109 °C.
Compound `CCOC(=O)C(C#N)C1C(=O)N(C)c2ccccc21` (stereo not drawn) displayed a melting point of 119 to 121 °C.
Consider `Cc1cc(C(=O)O)nn1-c1ccc(Cl)cc1`, for which the melting point was in the range of 139 to 141 °C.
As for `CCOC(=O)c1c(N)sc2c1CC(C)(C)NC2(C)C`, the figure is 95 to 97 °C; as for `Cc1nc(COc2ccccc2C(=O)O)no1`, 89 to 91 °C.
As for `COc1ccc(OCc2ccccn2)c(/C=C/C(=O)O)c1`, the figure is 177 to 179 °C.
Under `OCc1cccc2nccn12` stands 154 to 156 °C.
In turn, `O=C(O)CCNC(=O)c1ccc2cn[nH]c2c1` had a melting point of 234 to 236 °C.
Under `Nc1c(F)cc(Cl)cc1F` stands 44 to 46 °C; under `O=C(O)c1ccc(=O)n(-c2cccc(Br)c2)c1`, 279 to 281 °C.
In turn, `O=S(=O)(Cl)/C=C/c1ccccc1` came in with a melting point of 80 to 88 °C.
For the compound `Cc1ccc(NC(=O)C2CCCNC2)nc1` (stereo not drawn), the melting point lay within 144 to 146 °C.
As for `Cc1nc(-c2ccccc2)sc1N`, the figure is 117 to 119 °C; as for `NC(=O)c1ccc(C(=O)O)cn1`, 347 to 349 °C.
As for `Cc1[nH]c(SCC(=O)O)nc1Cc1ccccc1`, the figure is 183 to 185 °C; as for `CCc1cc(=O)[nH]c(-c2cccc(N)c2)n1`, 139 to 141 °C.
For `Cc1ccc(-c2cnc(CCC(=O)O)o2)cc1C`, the melting point fell in the range of 159 to 161 °C.
As for `Cc1ccc(C(=O)CCC(=O)O)cc1C`, the figure is 127 to 129 °C.
In turn, `CN(CC(=O)O)S(C)(=O)=O` displayed a melting point of 54 to 56 °C.
Under `Cc1nn(C)c(C)c1C(=O)C(N)=O` stands 182 to 184 °C; under `Cc1ccc(N=C=O)c(C#N)c1`, 52 to 54 °C; under `Brc1cccc(-c2nnco2)c1`, 74 to 76 °C.
On to `COc1cc(C=O)c(Br)cc1O`, for which the melting point was 175 to 177 °C.
Under `Nc1ccc(N2CCSCC2)cc1C(=O)O` stands 176 to 178 °C; under `O=C(O)c1cccc(NS(=O)(=O)c2ccccc2)c1`, 199 to 201 °C; under `CCn1c(=O)c2ccccc2n2c(CCl)nnc12`, 195 to 197 °C.
As for `Cc1cnn(-c2ccc(C(N)=O)cc2N)c1`, the figure is 164 to 166 °C.
As for `O=C(CCl)NCCc1ccsc1`, the figure is 75 to 77 °C; as for `Clc1cc(Cl)cc(-c2nnc(Br)s2)c1`, 154 to 156 °C; as for `O=C(O)CCNC(=O)C1CCCC1`, 128 to 130 °C.
For the compound `CC(NS(=O)(=O)Cc1ccc(CN)cc1)C(N)=O` (stereo not drawn), the melting point fell in the range of 140 to 142 °C.
